In PMC6508792, “Arabidopsis MATE45 antagonizes local abscisic acid signaling to mediate development and abiotic stress responses” (Plant Direct, 2018):

Target: T1, MATE45^long (Arabidopsis thaliana, UniProt A0A1L2EGK5)
T1 construct: gene At1g71870; long splice form ORF cloned from wild-type seedling cDNA, in pDEST42, expressed in Escherichia coli acrB
T1 sequence (A0A1L2EGK5 1-510): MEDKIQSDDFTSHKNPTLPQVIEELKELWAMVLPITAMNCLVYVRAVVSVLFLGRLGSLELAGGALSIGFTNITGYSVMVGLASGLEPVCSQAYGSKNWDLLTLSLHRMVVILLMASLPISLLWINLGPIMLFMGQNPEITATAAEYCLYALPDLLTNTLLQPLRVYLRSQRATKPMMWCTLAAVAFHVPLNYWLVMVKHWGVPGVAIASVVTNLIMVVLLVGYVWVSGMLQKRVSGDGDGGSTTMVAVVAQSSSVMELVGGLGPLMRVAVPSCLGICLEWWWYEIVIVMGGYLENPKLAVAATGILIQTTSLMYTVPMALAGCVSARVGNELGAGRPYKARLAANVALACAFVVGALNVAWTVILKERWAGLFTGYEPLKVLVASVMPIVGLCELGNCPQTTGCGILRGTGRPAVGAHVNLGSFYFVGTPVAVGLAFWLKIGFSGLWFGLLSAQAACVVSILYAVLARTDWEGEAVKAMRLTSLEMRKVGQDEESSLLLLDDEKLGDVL
Test: uptake into E. coli acrB cells, LC-MS MRM
Assay type: cell-based
Details: 0.5 uM (+)-ABA, 30 min; Venus fluorescent protein as control

CC1=CC(=O)CC(C)(C)C1(O)/C=C/C(C)=C\C(=O)O (stereo in doubt) [(+)-ABA, (+)‐ABA]
rate of (+)-ABA uptake: significantly higher rates of ABA uptake into E. coli cells expressing MATE45^long compared to the control
